Measurements as given in patent US10246418B2, “Crystal form of lenvatinib methanesulfonate salt and preparation method thereof” (CRYSTAL PHARMATECH CO., LTD., priority 2015, dated 2019).
Values after ≈ are worked out from the molar mass of the structure shown.

Key:
[1] = Solubility comparison: saturated solutions in SGF, FaSSIF, FeSSIF and high purity water, concentration by HPLC; conditions: for solubility at 24 h: thermodynamic from solid; for Solubility: HPLC
Procedure: Solubility comparison between crystalline Form M of lenvatinib mesylate of the present disclosure and anhydrate Form C in patent CN1890220A:
Crystalline Form M of lenvatinib mesylate prepared in example 1 and anhydrate Form C in CN1890220A were prepared into saturated solution in pH 1.8 SGF (Simulated gastric fluid), pH 5.0 FeSSIF (Fed state simulated intestinal fluid), FassIF (Fasted state simulated intestinal fluid) and high purity water. Concentrations in the saturated solutions were determined after 24 hours by HPLC.

[2] = Stability assessment of crystalline form by XRPD before and after storage; format: physicochemical; conditions: 7 days
Procedure: FIG. 7a˜7c show XRPD patterns overlay of crystalline Form M of lenvatinib mesylate before and after stored in the following conditions for 7 days: a) sealed in aluminum plastic bags at 25° C./60% RH; b) sealed in aluminum plastic bags at 40° C./75% RH; c) sealed in aluminum plastic bags at 60° C./75% RH.
Stability assessment of Form M of lenvatinib mesylate of the present disclosure:
Three samples of crystalline Form M of lenvatinib mesylate were stored under the following conditions: a) sealed in aluminum plastic bags at 25° C./60% RH; b) sealed in aluminum plastic bags at 40° C./75% RH; c) sealed in aluminum plastic bags at 60° C./75% RH. The samples were tested by XRPD before and after stored for 7 days.

Compound | Solubility in comparison with Form C in patent CN1890220A ([1]; SGF, FaSSIF, FeSSIF, high purity water, 24 h) | solubility at 24 h ([1]; fasted state simulated intestinal fluid (FaSSIF), fassif) | solubility at 24 h ([1]; fed state simulated intestinal fluid (FeSSIF), pH 5, fessif) | solubility at 24 h ([1]; high purity water, water) | solubility at 24 h ([1]; simulated gastric fluid (SGF), pH 1.8, simulated gastric fluid) | Crystalline form stability (XRPD pattern before and after storage) ([2]; sealed in aluminum plastic bags at 25° C./60% RH) | Crystalline form stability (XRPD pattern before and after storage) ([2]; sealed in aluminum plastic bags at 40° C./75% RH) | Crystalline form stability (XRPD pattern before and after storage) ([2]; sealed in aluminum plastic bags at 60° C./75% RH) | Solubility ([1]; FaSSIF (fasted state simulated intestinal fluid), saturated solution, 24 h) | Solubility ([1]; FeSSIF (fed state simulated intestinal fluid) pH 5.0, saturated solution, 24 h) | Solubility ([1]; High purity water, saturated solution, 24 h) | Solubility ([1]; SGF (simulated gastric fluid) pH 1.8, saturated solution, 24 h)
COc1cc2nccc(Oc3ccc(NC(=O)NC4CC4)c(Cl)c3)c2cc1C(N)=O [Form M, 4-{3-Chloro-4-[(cyclopropylcarbamoyl)amino]phenoxy}-7-methoxy-6-quinolinecarboxamide] | higher solubility | 24 µg/mL (≈ 56.2 µM) | 0.4 µg/mL (≈ 0.937 µM) | 1600 µg/mL (≈ 3750 µM) | 690 µg/mL (≈ 1620 µM) | remained unchanged | remained unchanged | remained unchanged | – | – | – | –
COc1cc2nccc(Oc3ccc(NC(=O)NC4CC4)c(Cl)c3)c2cc1C(N)=O.CS(=O)(=O)O [Form C, reference compound] | – | – | – | – | – | – | – | – | 1.5 µg/mL | 0.3 µg/mL | 1000 µg/mL | 640 µg/mL
